Reference: patent US20250051285A1, “C[…] FORM OF EP4 ANTAGONIST” (Eisai R&D Management Co., Ltd., priority 2021, published 2025)

Legend:
Type in all cases: physicochemical
[1] = Dissociation constant (pKa) by capillary electrophoresis; conditions: capillary electrophoresis (CE), buffer solution I = 0.05, 25° C.
[2] = Solubility in organic solvents and water
[3] = Solubility in aqueous solutions
[4] = Hygroscopicity by dynamic vapor sorption (DVS)
Method: Hygroscopicity of crystalline free acid form of Compound 1 was measured using the dynamic vapor sorption (DVS) method.

C[C@H](NC(=O)c1c(C(F)F)nn(C)c1Oc1cccc(C(F)(F)F)c1)c1ccc(C(=O)O)cc1 [Compound 1, (S)-4-(1-(3-(difluoromethyl)-1-methyl-5-(3-(trifluoromethyl)phenoxy)-1H-pyrazole-4-carboxamido)ethyl)benzoic acid]
pKa [1]: 4.1
Solubility in 2-propanol ([2]; 2-propanol): ethanol and ethyl acetate, slightly soluble in 2-
Solubility in acetonitrile ([2]; acetonitrile): soluble
Solubility in ethanol ([2]; ethanol): sparingly soluble
Solubility in ethyl acetate ([2]; ethyl acetate): sparingly soluble
Solubility in heptane ([2]; heptane): practically insoluble in water and heptane.
Solubility in water ([2]; water): practically insoluble in water and heptane.
Solubility in 0.1N HCl ([3]; 0.1N HCl): 0.3, pH 9) and practically insoluble in 0.1N HCl and
Solubility in Britton-Robinson buffer pH 9 ([3]; Britton-Robinson buffer, I = 0.3, pH 9): Very slightly soluble in Britton-Robinson buffer (I =
Hygroscopicity ([4]; DVS adsorption and desorption isotherm): Non-hygroscopic
Weight change in DVS ([4]; relative humidity 5% to 95% RH at 25° C.): No significant weight change
